From ChEMBL document CHEMBL1201862, “PubChem BioAssay data set” (2004)
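1) Cells in 96-well plates. 2) Compound, 48 h, 5 concentrations. 3) Linear interpolation between surrounding doses. 4) Unreached endpoint = highest concentration. The concentration for 50% growth inhibition is given as GI50.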 Active and inactive are the calls of the source. Cut-off read from the data, not from the text of the source: active = GI50 up to about 1.1 µM and inactive = higher.

How the values were obtained:
Experiment in all cases: NCI tumour cell line growth inhibition, 48 h
A498 = system: A498
CCRF-CEM = system: CCRF-CEM
DLD-1 = system: DLD-1
HCC 2998 = system: HCC 2998
HCT-116 = system: HCT-116
HOP-92 = system: HOP-92
K562 = system: K562
M14 = system: M14
OVCAR-4 = system: OVCAR-4
OVCAR-8 = system: OVCAR-8
SF-295 = system: SF-295
SK-MEL-5 = system: SK-MEL-5
SNB-75 = system: SNB-75
SR = system: SR
SW-620 = system: SW-620
U-251 = system: U-251
UACC-257 = system: UACC-257
UACC-62 = system: UACC-62
MDA-N = system: MDA-N
NCI-H23 = system: NCI-H23

Measured: GI50

CC1OC(n2cc(F)c(=O)[nH]c2=O)CCC1=O (stereo not given)
inactive: A498 30.4 µM | CCRF-CEM > 100 µM | DLD-1 52.5 µM | HCC 2998 5.98 µM | HCT-116 44.9 µM | HOP-92 > 100 µM | K562 > 100 µM | M14 > 100 µM | OVCAR-4 > 100 µM | OVCAR-8 > 100 µM | SF-295 > 100 µM | SK-MEL-5 > 100 µM | SNB-75 > 100 µM | SR > 100 µM | SW-620 > 100 µM | U-251 > 100 µM | UACC-257 > 100 µM | UACC-62 > 100 µM

COC(=O)c1sc(C(=O)OC)c2c1CSC2
inactive: A498 > 91 µM | CCRF-CEM > 100 µM | DLD-1 > 100 µM | HCC 2998 > 100 µM | HCT-116 97.9 µM | HOP-92 32 µM | K562 > 100 µM | M14 > 100 µM | MDA-N > 100 µM | NCI-H23 > 72.1 µM | OVCAR-4 > 100 µM | OVCAR-8 79.6 µM | SF-295 51.3 µM | SK-MEL-5 > 100 µM | SNB-75 22.5 µM | SR > 100 µM | SW-620 > 100 µM | U-251 40.3 µM | UACC-257 > 100 µM | UACC-62 > 78.7 µM

CC#CC1C(OC(=O)c2ccccc2)CCCC1(CI)N=[N+]=[N-] (stereo not given)
inactive: A498 > 100 µM | CCRF-CEM 26.2 µM | DLD-1 52.1 µM | HCC 2998 90.2 µM | HCT-116 32.8 µM | HOP-92 92.7 µM | K562 28.4 µM | M14 59.8 µM | NCI-H23 28.3 µM | OVCAR-4 60.1 µM | OVCAR-8 59.7 µM | SF-295 87.5 µM | SK-MEL-5 19.5 µM | SNB-75 > 100 µM | SR 17.5 µM | SW-620 > 100 µM | U-251 59.7 µM | UACC-257 38.2 µM | UACC-62 > 100 µM

CSc1nc(NC2OC(COC(C)=O)C(OC(C)=O)C(OC(C)=O)C2OC(C)=O)c2c(n1)OCC2=O (stereo not given)
inactive: A498 > 100 µM | CCRF-CEM > 100 µM | DLD-1 > 100 µM | HCT-116 > 100 µM | HOP-92 > 100 µM | K562 > 100 µM | M14 > 100 µM | NCI-H23 > 100 µM | OVCAR-4 > 100 µM | OVCAR-8 > 100 µM | SF-295 > 100 µM | SK-MEL-5 > 100 µM | SNB-75 > 100 µM | SR > 100 µM | SW-620 > 100 µM | U-251 > 100 µM | UACC-257 > 100 µM | UACC-62 > 100 µM

O=C1NCCS(=O)(=O)N[C@@H](CC2=CC=CCC2)C(=O)N2CCCC12 (stereo not given in full)
inactive: A498 > 100 µM | CCRF-CEM > 100 µM | DLD-1 > 100 µM | HCC 2998 > 100 µM | HCT-116 > 100 µM | HOP-92 > 100 µM | K562 > 100 µM | M14 > 100 µM | NCI-H23 > 100 µM | OVCAR-4 > 100 µM | OVCAR-8 > 100 µM | SF-295 > 100 µM | SK-MEL-5 > 100 µM | SNB-75 > 100 µM | SR > 100 µM | SW-620 > 100 µM | U-251 > 100 µM | UACC-257 > 100 µM | UACC-62 > 100 µM

N#CCC(=O)N/N=C(\CCN1CCCC1)CC(c1ccccc1)c1c(O)c2ccccc2oc1=O (stereo not given)
inactive: A498 > 41.1 µM | CCRF-CEM 39.4 µM | DLD-1 > 100 µM | HCC 2998 21.2 µM | HCT-116 > 84.1 µM | HOP-92 27.7 µM | K562 62.1 µM | M14 98.6 µM | MDA-N 58.6 µM | NCI-H23 97.1 µM | OVCAR-4 > 86.3 µM | OVCAR-8 > 95.5 µM | SF-295 > 100 µM | SK-MEL-5 > 72.1 µM | SNB-75 > 89.1 µM | SR 29.4 µM | SW-620 > 58.2 µM | U-251 82.6 µM | UACC-257 > 70.6 µM | UACC-62 > 80.2 µM

c1ccc2[nH]c(CNc3ccc(C4C[Se]N=N4)cc3)nc2c1 (stereo not given)
inactive: A498 > 100 µM | CCRF-CEM 25.7 µM | DLD-1 > 100 µM | HCC 2998 > 100 µM | HCT-116 41.2 µM | HOP-92 > 100 µM | K562 27.9 µM | M14 67.3 µM | NCI-H23 30.3 µM | OVCAR-4 27.5 µM | OVCAR-8 28.5 µM | SF-295 28.4 µM | SK-MEL-5 15.1 µM | SNB-75 43.2 µM | SR 9.86 µM | SW-620 95.7 µM | U-251 55.8 µM | UACC-62 24.7 µM

O=C(O)CC[C@H](NC(=O)c1ccc(-n2nc3ccc(=O)cc-3[nH]c2=O)cc1)C(=O)O
inactive: A498 > 100 µM | CCRF-CEM > 100 µM | DLD-1 > 100 µM | HCC 2998 > 100 µM | HCT-116 > 100 µM | HOP-92 > 100 µM | K562 > 100 µM | M14 > 100 µM | NCI-H23 > 100 µM | OVCAR-4 > 100 µM | OVCAR-8 > 100 µM | SF-295 > 100 µM | SK-MEL-5 > 100 µM | SR > 100 µM | SW-620 > 100 µM | U-251 > 100 µM | UACC-257 > 100 µM | UACC-62 > 100 µM
